Assay results published in ChEMBL document CHEMBL1201862, “PubChem BioAssay data set” (2004).
Activity calls are given as the source filed them.

Tests used:
[1] = molecular target: T1, Leucine aminopeptidase (Plasmodium falciparum 3D7, UniProt Q8IL11); test: P. falciparum M17LAP inhibitors, primary screen, biochemical, fluorogenic H-Leu-NHMec substrate, 1536-well (AID 1619); format: functional
T1 sequence (Q8IL11 whole entry): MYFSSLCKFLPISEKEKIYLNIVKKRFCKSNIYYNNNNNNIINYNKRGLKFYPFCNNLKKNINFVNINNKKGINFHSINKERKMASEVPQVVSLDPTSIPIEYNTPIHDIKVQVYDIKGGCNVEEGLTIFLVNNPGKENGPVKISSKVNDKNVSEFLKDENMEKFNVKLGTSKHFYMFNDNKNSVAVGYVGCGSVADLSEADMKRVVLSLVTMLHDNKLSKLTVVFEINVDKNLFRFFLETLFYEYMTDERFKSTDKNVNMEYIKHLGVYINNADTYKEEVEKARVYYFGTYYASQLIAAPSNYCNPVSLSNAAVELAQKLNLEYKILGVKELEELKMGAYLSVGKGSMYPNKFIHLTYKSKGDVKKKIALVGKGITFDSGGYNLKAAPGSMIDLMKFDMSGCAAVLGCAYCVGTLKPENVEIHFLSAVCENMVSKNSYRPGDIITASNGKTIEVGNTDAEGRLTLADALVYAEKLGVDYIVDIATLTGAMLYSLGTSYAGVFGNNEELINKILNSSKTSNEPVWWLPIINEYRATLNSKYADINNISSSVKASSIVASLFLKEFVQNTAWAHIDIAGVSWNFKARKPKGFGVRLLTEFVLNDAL

[2] = cells; format: functional, cell-based
[3] = molecular target: DNA dC->dU-editing enzyme APOBEC-3G (Homo sapiens, UniProt Q9HC16); test: Dose Response confirmation of small molecule APOBEC3G DNA Deaminase Inhibitors via a fluorescence-based single-stranded DNA deaminase assay. [Related pubchem assays (depositor defined):AID493012, AID493028]; format: functional
[4] = cells; format: functional, cell-based; remark: listed apart in the source
[5] = molecular target: T2, Long-chain-fatty-acid--AMP ligase FadD28 (Mycobacterium tuberculosis, UniProt P9WQ59); test: Fluorescence polarization aasay to screen for inhibitors that compete for the binding of FadD28 to a bisubstrate Measured in Biochemical System Using Plate Reader - 2147-01_Inhibitor_Dose_CherryPick_Activity.; format: functional, Mycobacterium tuberculosis H37Rv
T2 sequence (P9WQ59 whole entry): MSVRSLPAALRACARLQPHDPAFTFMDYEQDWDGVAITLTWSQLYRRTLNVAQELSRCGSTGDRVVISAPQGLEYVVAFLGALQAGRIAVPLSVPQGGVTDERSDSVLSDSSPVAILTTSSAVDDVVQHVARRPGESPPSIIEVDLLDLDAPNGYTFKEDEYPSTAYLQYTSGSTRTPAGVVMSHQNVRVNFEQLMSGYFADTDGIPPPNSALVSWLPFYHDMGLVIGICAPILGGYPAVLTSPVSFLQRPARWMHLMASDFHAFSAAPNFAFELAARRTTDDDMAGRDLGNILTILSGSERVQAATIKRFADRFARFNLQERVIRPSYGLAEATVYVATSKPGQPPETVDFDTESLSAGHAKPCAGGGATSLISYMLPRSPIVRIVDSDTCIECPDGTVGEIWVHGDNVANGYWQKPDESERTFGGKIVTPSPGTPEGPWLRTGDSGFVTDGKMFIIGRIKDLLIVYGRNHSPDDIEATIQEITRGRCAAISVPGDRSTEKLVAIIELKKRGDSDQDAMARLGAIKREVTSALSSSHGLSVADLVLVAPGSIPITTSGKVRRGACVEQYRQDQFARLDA

[6] = molecular target: T3, Carboxy-terminal domain RNA polymerase II polypeptide A small phosphatase 1 (Homo sapiens, UniProt Q9GZU7); test: inhibitors of CTDSP1, concentration-response testing, biochemical assay, absorbance-based, actives from ultra-high-throughput screening (AID 540297); format: functional
T3 sequence (Q9GZU7 whole entry): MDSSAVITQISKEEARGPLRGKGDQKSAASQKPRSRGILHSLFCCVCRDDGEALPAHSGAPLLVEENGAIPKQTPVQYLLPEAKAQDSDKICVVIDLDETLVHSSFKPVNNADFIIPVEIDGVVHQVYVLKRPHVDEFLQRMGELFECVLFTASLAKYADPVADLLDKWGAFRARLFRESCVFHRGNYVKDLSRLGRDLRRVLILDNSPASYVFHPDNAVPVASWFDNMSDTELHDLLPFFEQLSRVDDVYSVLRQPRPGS

[7] = molecular target: ORF 73 (Human herpesvirus 8, UniProt O40947); test: inhibitors of C-LANA binding to LBS DNA, dose response, biochemical, fluorescence polarization, cherry-picked samples (AID 504725); set-up: species or system Human gammaherpesvirus 8;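 also: fluorescence polarization of a labeled DNA duplex reporting LANA DNA binding; potency is for inhibitors that block LANA binding to the DNA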
Chain of ORF 73 (O40947 whole entry): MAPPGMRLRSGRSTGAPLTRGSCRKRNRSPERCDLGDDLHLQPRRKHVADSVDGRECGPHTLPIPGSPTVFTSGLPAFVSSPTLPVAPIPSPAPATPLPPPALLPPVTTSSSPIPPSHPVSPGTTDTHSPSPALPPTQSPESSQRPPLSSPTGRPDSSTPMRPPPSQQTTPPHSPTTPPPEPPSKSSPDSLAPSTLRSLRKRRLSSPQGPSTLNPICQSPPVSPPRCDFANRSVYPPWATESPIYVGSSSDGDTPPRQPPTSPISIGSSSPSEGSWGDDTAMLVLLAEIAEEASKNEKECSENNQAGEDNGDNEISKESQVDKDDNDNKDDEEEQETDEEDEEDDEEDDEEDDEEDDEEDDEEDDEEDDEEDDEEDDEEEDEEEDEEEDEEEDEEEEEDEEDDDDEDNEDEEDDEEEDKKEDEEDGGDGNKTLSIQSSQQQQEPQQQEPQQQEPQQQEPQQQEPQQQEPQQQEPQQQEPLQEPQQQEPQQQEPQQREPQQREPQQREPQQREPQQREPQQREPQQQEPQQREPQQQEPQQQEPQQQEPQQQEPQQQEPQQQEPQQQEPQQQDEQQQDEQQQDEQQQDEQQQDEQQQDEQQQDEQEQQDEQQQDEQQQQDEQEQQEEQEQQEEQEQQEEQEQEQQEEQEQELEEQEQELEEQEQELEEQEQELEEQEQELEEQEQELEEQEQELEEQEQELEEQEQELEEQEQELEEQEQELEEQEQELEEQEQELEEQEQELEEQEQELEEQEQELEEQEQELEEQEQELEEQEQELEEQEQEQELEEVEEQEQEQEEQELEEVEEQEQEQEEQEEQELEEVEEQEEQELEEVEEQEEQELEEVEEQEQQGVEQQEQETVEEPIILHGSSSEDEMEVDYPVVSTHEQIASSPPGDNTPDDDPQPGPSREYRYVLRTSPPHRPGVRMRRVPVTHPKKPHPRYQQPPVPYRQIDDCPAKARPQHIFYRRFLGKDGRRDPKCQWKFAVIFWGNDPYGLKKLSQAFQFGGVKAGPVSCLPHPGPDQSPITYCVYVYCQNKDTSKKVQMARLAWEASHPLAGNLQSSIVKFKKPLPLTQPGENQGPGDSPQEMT

[8] = molecular target: DNA (cytosine-5)-methyltransferase 1 (Homo sapiens, UniProt P26358); test: DNMT1 methyltransferase inhibitors, confirmation, biochemical, fluorescent molecular beacon (AID 602386); format: functional
Chain of DNA (cytosine-5)-methyltransferase 1 (P26358 whole entry): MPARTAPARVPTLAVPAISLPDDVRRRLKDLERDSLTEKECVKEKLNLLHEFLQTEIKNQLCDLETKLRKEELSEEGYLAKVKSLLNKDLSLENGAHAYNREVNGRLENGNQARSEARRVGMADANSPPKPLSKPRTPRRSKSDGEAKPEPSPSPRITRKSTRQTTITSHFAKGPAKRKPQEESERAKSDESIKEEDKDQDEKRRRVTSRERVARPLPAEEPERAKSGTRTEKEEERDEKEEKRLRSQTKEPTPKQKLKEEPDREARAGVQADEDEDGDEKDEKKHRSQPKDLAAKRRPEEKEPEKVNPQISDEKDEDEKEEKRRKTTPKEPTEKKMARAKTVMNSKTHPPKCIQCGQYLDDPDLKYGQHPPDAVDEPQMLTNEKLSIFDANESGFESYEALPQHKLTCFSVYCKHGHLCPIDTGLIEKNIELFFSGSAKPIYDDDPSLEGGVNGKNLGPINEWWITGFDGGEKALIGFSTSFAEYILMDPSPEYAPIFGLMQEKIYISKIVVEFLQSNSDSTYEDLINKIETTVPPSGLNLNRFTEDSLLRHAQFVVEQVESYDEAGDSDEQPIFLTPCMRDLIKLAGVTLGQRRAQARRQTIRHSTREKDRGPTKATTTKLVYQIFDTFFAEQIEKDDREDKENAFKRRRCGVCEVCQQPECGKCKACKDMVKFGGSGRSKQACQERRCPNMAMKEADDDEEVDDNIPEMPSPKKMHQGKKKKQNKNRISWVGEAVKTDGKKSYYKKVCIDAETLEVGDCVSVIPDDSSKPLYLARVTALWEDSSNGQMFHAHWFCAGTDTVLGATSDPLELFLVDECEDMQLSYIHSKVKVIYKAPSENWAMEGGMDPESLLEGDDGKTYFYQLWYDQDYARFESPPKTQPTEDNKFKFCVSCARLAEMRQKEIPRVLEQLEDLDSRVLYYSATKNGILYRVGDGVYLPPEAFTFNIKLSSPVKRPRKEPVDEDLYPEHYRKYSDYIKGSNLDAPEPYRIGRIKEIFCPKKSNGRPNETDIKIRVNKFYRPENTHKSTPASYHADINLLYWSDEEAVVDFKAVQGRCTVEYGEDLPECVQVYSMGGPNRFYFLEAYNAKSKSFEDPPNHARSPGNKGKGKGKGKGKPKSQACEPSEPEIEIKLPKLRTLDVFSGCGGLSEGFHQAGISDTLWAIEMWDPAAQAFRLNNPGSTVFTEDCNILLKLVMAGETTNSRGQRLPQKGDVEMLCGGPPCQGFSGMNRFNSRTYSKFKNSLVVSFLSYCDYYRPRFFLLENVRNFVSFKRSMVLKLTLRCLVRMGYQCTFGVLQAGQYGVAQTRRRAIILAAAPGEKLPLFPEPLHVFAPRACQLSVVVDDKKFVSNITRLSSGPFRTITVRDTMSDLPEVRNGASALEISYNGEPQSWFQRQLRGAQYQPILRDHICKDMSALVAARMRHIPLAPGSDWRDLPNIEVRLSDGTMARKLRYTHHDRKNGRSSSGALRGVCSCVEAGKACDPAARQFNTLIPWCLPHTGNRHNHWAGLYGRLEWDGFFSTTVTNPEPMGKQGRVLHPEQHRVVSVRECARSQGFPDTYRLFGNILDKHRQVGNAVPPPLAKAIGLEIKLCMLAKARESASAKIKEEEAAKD

[9] = molecular target: Voltage-dependent T-type calcium channel subunit alpha-1H (Homo sapiens, UniProt O95180); format: functional;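 also: channel activity triggered by adding a high calcium stimulation buffer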
Chain of Voltage-dependent T-type calcium channel subunit alpha-1H (O95180 whole entry): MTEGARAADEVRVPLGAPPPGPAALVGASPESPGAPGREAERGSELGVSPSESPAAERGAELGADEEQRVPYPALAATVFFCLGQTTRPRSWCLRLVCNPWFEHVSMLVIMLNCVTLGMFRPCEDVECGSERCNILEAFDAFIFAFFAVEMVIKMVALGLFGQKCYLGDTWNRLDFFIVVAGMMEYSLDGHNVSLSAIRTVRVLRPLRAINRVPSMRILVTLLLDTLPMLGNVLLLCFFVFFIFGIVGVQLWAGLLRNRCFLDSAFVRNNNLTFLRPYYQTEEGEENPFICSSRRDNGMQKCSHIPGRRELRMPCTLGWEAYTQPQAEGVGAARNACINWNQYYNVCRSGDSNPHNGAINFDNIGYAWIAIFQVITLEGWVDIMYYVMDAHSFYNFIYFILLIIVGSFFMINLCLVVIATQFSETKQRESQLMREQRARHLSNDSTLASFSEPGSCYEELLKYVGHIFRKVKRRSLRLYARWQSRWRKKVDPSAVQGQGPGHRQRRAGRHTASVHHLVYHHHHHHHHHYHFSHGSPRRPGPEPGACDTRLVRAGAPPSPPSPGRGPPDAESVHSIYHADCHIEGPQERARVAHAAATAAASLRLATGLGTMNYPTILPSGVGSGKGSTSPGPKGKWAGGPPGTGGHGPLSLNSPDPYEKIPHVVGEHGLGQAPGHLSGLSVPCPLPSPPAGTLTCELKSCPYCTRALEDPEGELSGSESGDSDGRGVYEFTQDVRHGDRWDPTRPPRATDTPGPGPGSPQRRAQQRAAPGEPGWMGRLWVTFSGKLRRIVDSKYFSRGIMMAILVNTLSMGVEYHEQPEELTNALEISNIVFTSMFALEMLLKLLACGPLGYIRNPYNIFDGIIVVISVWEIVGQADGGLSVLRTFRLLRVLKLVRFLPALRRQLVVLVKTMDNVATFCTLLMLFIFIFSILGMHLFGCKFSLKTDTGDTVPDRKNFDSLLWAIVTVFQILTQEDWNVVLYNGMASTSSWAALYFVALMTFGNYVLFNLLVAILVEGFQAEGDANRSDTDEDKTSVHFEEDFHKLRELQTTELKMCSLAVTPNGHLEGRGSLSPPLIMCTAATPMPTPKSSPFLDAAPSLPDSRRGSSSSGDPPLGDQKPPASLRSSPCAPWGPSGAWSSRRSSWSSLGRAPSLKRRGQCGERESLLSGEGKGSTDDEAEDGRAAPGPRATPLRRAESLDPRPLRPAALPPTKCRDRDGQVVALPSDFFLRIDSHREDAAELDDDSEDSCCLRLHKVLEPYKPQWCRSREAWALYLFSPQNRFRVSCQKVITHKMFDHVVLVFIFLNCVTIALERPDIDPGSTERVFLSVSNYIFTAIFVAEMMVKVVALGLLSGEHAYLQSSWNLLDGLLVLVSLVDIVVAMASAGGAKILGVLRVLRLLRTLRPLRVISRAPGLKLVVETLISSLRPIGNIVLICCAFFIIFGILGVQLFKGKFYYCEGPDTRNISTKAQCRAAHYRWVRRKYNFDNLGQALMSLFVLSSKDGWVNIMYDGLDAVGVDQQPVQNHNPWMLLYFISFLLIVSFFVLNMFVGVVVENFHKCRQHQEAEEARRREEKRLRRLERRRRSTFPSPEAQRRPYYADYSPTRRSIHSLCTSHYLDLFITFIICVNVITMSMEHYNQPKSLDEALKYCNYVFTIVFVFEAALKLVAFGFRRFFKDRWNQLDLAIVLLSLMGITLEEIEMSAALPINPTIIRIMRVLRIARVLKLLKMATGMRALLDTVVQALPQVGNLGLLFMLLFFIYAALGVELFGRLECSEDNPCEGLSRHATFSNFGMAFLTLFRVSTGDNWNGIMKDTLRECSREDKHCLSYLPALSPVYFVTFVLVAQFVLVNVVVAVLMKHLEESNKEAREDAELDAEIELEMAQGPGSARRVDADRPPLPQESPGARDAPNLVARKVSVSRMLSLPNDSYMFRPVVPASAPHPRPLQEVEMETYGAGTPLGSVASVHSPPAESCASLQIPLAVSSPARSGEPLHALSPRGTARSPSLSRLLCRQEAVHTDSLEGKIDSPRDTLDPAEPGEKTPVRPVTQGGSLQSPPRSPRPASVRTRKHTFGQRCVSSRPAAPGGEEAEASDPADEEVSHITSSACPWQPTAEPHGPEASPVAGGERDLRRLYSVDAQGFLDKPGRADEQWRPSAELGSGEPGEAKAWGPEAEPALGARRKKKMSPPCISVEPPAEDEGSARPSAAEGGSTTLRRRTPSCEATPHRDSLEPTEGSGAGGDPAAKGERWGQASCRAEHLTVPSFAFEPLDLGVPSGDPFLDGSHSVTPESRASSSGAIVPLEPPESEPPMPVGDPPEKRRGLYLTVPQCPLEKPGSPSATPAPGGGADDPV

[10] = Luminescence Cell-Based Dose Retest to Confirm Inhibitors of Cancer Stem Cells. [Related pubchem assays (depositor defined):AID2717, AID2721]; format: functional; details: Homo sapiens
[11] = molecular target: T4, Histone-lysine N-methyltransferase NSD2 (Homo sapiens, UniProt O96028); format: biochemical
T4 sequence (O96028 whole entry): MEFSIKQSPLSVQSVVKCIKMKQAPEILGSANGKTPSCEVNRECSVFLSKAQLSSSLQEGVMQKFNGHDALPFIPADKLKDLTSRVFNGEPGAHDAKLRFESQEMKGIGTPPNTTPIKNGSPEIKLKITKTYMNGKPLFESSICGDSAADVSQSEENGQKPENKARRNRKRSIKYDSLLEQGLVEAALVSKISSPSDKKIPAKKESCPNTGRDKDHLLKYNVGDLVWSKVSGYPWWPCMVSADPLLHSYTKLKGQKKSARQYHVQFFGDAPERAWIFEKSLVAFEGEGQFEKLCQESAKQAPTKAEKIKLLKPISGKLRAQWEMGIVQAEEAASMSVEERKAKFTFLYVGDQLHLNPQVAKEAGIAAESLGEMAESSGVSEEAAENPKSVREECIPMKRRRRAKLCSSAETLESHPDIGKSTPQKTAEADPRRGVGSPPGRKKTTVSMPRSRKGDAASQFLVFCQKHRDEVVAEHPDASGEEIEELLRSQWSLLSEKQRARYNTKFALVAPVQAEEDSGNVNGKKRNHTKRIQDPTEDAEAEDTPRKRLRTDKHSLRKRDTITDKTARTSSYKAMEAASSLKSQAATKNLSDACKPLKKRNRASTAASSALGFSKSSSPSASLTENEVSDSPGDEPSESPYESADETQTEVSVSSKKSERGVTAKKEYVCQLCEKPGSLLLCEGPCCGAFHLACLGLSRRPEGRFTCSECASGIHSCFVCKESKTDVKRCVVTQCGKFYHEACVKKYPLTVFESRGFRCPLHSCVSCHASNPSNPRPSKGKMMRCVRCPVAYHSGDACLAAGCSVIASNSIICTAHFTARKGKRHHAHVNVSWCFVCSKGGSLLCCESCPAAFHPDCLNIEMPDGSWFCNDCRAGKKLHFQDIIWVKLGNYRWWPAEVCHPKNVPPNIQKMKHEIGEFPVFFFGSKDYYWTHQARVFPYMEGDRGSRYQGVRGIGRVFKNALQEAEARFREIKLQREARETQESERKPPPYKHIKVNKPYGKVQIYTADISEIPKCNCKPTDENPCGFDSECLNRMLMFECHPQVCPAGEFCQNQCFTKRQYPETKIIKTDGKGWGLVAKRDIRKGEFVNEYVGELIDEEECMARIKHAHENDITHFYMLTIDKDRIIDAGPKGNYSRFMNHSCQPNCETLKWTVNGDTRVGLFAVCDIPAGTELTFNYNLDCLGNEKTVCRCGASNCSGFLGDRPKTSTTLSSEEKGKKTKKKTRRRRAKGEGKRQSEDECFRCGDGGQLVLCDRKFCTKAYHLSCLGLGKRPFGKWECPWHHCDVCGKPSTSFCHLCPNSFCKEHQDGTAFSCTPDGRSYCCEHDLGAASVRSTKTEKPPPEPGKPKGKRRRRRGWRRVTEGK

[12] = inhibitors of intracellular T. cruzi replication, confirmation, NIH3T3 host cells, beta-gal luminescence (AID 2044); format: functional, cell-based;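 also: intracellular parasites grown in NIH/3T3 mouse fibroblasts as host cells; luminescent beta-galactosidase reporter signal from transgenic T. cruzi replicating inside host cells; inhibitors lower the luminescence signal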
[13] = tested on: BJ; test: cytotoxicity toward BJ-TERT fibroblasts, dose response, cell-based, RAS-independent, luminescence (AID 1933); format: functional; details: Homo sapiens
[14] = cytotoxicity toward NIH3T3 fibroblasts, dose response, counter-screen, cell-based, ATP luminescence, mouse fibroblasts (AID 2010); format: functional;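 also: cells exposed to compound for about 90 hours before reading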
[15] = tested on: BJ; test: cytotoxicity toward BJ-TERT-LT-ST fibroblasts, dose response, cell-based, RAS-independent, luminescence (AID 1935); format: functional; details: Homo sapiens;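 also: BJ fibroblasts immortalized with TERT plus LT and ST oncogenes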
[16] = tested on: BJ; test: cells; format: functional, cell-based; details: Homo sapiens
[17] = control 3'UTR Renilla luciferase suppression, dose response, counter-screen for Shn3 inhibitor project, cell-based, Clone20-Shn3RL, cherry-picked (AID 624133); format: functional
[18] = molecular target: T5, Hexokinase HKDC1 (Homo sapiens, UniProt Q2TB90); test: HKDC1 hexokinase inhibitors, dose response, biochemical, W721R variant (AID 504729); format: functional
T5 sequence (Q2TB90 whole entry): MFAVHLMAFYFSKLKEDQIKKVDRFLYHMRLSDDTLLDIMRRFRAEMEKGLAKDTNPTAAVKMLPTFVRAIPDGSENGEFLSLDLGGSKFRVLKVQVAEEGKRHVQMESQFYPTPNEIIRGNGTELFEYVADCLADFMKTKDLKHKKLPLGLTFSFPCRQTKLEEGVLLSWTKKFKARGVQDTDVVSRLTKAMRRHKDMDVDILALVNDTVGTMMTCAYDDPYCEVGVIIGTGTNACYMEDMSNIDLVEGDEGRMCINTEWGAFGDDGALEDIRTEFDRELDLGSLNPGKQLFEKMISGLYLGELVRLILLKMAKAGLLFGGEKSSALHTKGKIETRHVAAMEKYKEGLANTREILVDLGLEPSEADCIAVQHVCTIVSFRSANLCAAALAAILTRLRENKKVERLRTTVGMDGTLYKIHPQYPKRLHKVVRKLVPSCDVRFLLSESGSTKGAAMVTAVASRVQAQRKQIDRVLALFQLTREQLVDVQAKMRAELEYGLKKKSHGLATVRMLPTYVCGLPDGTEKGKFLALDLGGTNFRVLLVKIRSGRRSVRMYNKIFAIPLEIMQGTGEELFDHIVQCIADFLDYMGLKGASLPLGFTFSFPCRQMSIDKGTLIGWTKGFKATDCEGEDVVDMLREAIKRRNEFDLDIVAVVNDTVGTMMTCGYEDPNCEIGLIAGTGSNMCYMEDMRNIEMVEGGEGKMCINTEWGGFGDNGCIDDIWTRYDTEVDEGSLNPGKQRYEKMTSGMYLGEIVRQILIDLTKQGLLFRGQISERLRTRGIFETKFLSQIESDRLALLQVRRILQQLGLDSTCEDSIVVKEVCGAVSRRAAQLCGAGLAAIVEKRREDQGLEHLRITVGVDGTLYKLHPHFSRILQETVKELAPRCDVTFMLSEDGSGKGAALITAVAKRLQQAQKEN

[19] = cytotoxicity toward DRD oncogenic fibroblasts, dose response, cell-based, non-viral oncogenic, luminescence (AID 1934); format: functional; details: Homo sapiens
[20] = HepG2 cell cytotoxicity, dose response, cytotoxicity control for Shn3 inhibitor project, CellTiter-Glo, cherry-picked (AID 624134); format: functional, cell-based
[21] = Shn3 3'UTR reporter inhibitors, dose response, cell-based, Clone20 osteoblasts, firefly luciferase, cherry-picked (AID 624132); format: functional;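 also: firefly luciferase luminescence from reporter carrying the Shn3 3'UTR in osteoblasts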
[22] = molecular target: T6, CAAX prenyl protease 2 (Saccharomyces cerevisiae S288c, UniProt Q03530); format: biochemical
T6 sequence (Q03530 whole entry): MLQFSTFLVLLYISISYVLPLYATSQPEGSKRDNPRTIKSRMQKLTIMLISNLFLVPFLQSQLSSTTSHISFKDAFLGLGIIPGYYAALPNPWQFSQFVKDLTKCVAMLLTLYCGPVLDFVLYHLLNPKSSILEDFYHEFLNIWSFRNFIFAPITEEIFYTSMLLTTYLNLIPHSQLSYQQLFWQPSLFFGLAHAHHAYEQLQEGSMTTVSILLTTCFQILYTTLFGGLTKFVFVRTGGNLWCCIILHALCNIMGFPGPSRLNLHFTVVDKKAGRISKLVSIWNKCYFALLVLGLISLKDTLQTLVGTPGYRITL

[23] = molecular target: Trypsin (Sus scrofa, UniProt P00761); test: porcine trypsin inhibitors, dose response, selectivity assay for Rce1 protease inhibitor project, biochemical, quenched peptide fluorescence, cherry-pick (AID 488789)

COc1cccc(Nc2nnc(S)s2)c1
IC50 [1]: 6.54 µM (active) | EC50 [2]: > 350 µM (not active) | IC50 [3]: > 100 µM (inactive) | EC50 [4]: > 350 µM (not active)

Cc1ccccc1NC(=O)CN1C(=O)N/C(=C\c2cccn2-c2cccc(C(=O)O)c2)C1=O
AC50 [5]: 55.3 µM (active) | IC50 [6]: 4.42 µM (active) | AC50 [7]: 74.7 µM (active) | IC50 [8]: 6.37 µM (active)

O=C(NC1CCCC1)C(c1ccccc1)N(Cc1ccc2c(c1)OCO2)C(=O)Cc1cccs1 (stereo unspecified)
EC50 [9]: 1.52 µM (active)

COc1ccc(Cn2nnnc2C(C(C)C)N(Cc2ccco2)Cc2cccs2)cc1 (stereo unspecified)
EC50 [9]: 6.56 µM (active) | AC50 [10]: 2.02 µM (active)

CCN(CC)CCNc1cc(C)nc2c1C(=O)C(=O)C=C2N1CCCCC1
AC50 [11]: > 20 µM (inactive) | EC50 [12]: 1.44 µM (active) | EC50 [13]: 5.91 µM (inconclusive) | EC50 [14]: > 60 µM (not active) | EC50 [2]: > 350 µM (not active) | EC50 [15]: 8.38 µM (active) | EC50 [16]: 10.2 µM (active) | AC50 [17]: 6.45 µM (active) | IC50 [18]: 13.2 µM (active) | EC50 [19]: 9.47 µM (active) | AC50 [20]: 5.54 µM (active) | EC50 [4]: > 350 µM (not active) | AC50 [21]: 6.61 µM (active)

CCN(CC)Cc1c(O)ccc2c(=O)c(-c3ccccc3OC)coc12
AC50 [22]: 13.8 µM (active) | AC50 [23]: 21.4 µM (active)
